What was measured:
[1] = biological target: T1, 5-HT2AR (Homo sapiens, UniProt P28223); assay: 5-HT induced intracellular calcium (Cai++) release assay in live 5-HT2AR-CHO cells; assay type: cell-based; details: compound alone or in the presence of 5-HT
T1 construct: expressed in transfected cells; host or cells: CHO cells (5-HT2AR—CHO)
Procedure: Selected results for the biological characterization of the synthesized compounds can be found in Ding et al., ACS Chem. Neurosci., 3, 538-545, 2012, and also described herein. The biological activity is assessed using an intracellular calcium (Cai^++) release assay. The best-characterized intracellular signaling pathway of the 5-HT2CR is the activation of phospholipase C (PLCβ) via Gαq/11 proteins and the production of diacylglycerol (DAG) and inositol-1,4,5-trisphosphate (IP3), leading to increased Cai^++ release from intracellular stores (Berg et al., Neuropharmacology 55, 969-76, 2008). Functional characterization of our synthetic PNU-69176E (CYD-1-78-2) and its diastereomer CYD-1-78-1 was determined by utilizing an Cai^++ release assay in live cells in which Cai^++ levels can be regarded as an outcome measure of activation of the 5-HT2CR signaling pathway (Berg et al., Neuropharmacology 55, 969-76, 2008). […]
Changes in Cai^++ levels were determined using the calcium sensitive dye Calcium 4 (FLIPR No-wash kit, Molecular Devices, Sunnyvale, Calif., part #R8142). […] Fluorescence (λex=485 nm, λem=525 nm) was measured with a FlexStation3 (Molecular Devices). […] Addition of 20 μL of 5× concentrated tested compound occurred at 17 sec and fluorescence was recorded every 1.7 sec for 90 sec to determine any innate agonist activity. […]

[2] = biological target: T2, 5-HT2CR (Homo sapiens, UniProt P28335); assay: 5-HT induced intracellular calcium (Cai++) release assay in live 5-HT2CR-CHO cells; assay type: cell-based; design: expressed in transfected cells
T2 sequence (P28335 33-458): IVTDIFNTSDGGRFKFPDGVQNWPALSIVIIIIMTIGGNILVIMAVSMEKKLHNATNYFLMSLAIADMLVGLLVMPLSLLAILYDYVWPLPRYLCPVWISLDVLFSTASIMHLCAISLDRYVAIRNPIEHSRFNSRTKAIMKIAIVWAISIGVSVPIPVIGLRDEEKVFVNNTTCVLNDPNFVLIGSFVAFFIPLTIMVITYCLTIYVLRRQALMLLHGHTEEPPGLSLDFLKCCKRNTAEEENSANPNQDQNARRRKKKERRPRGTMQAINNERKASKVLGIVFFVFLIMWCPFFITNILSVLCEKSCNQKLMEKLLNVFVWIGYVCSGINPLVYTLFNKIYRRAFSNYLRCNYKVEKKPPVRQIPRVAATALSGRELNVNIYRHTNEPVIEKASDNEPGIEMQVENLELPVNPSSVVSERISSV
Procedure: Selected results for the biological characterization of the synthesized compounds can be found in Ding et al., ACS Chem. Neurosci., 3, 538-545, 2012, and also described herein. The biological activity is assessed using an intracellular calcium (Cai^++) release assay. The best-characterized intracellular signaling pathway of the 5-HT2CR is the activation of phospholipase C (PLCβ) via Gαq/11 proteins and the production of diacylglycerol (DAG) and inositol-1,4,5-trisphosphate (IP3), leading to increased Cai^++ release from intracellular stores (Berg et al., Neuropharmacology 55, 969-76, 2008). Functional characterization of our synthetic PNU-69176E (CYD-1-78-2) and its diastereomer CYD-1-78-1 was determined by utilizing an Cai^++ release assay in live cells in which Cai^++ levels can be regarded as an outcome measure of activation of the 5-HT2CR signaling pathway (Berg et al., Neuropharmacology 55, 969-76, 2008). […] In addition, 1 nM of compound CYD-1-78-2 enhanced the Cai^++ response at low concentrations of 5-HT [10^11-3×10^−10 M; F(15,55)=16.73, p<0.01; FIG. 2]. […] Neither compound CYD-1-78-2 [F(10,68)=0.81, n.s.] nor the diastereomer CYD-1-78-1 [F(10,34)=0.76, n.s.] in concentrations up to 10^−5 M induced Cai^++ release in the 5-HT2CR—CHO cells in the absence of 5-HT (FIG. 3). This profile for compounds CYD-1-78-2 and −1 in 5-HT2CR—CHO cells was distinguished from that seen in 5-HT2AR—CHO cells in which neither compound alone or in the presence of 5-HT (compound CYD-1-78-1, F(10,43)=0.78; compound CYD-1-78-2, F(10,55)=1.27; FIG. 4) altered Cai^++ release (Ding et al., ACS Chem. Neurosci. 3, 538-545, 2012).
The Chinese hamster ovary (CHO) cell line stably transfected with 5-HT2CR was a generous gift of K. Berg and W. Clarke (University of Texas Health Science Center, San Antonio) (K. A. Berg, W. P. Clarke, C. Sailstad, A. Saltzman and S. Maayani, Mol. Pharmacol. 1994, 46 (3), 477-484; Ding et al., ACS Chem. Neurosci. 3, 538-545, 2012). Cells were grown at 37° C., 5% CO2 and 85% relative humidity in GlutaMax α-MEM (Invitrogen, Carlsbad Calif.), 5% fetal bovine serum (Atlanta Biologicals, Atlanta Ga.), 100 μg/mL hygromycin (Mediatech, Manassas Va.) and were passaged when they reached 80% confluence.
Changes in Cai^++ levels were determined using the calcium sensitive dye Calcium 4 (FLIPR No-wash kit, Molecular Devices, Sunnyvale, Calif., part #R8142). Cells were plated in serum-replete medium at 20,000 cells/well in black-sided, clear bottom 96-well tissue culture plates and were fed ˜24 hrs later with serum-free medium. Following overnight incubation, medium was removed and replaced with 40 μL of fresh serum-free medium plus 40 μL Calcium 4 dye solution in Hank's balanced saline solution (HBSS, without CaCl2 or MgCl2) supplemented with 2.5 mM water soluble probenicid (Invitrogen) to inhibit extracellular transport of the dye. Plates were incubated for 60 min at 37° C. and 60 min at room temperature in the dark. Fluorescence (λex=485 nm, λem=525 nm) was measured with a FlexStation3 (Molecular Devices). A baseline was established for each well during the initial segment of each run. Addition of 20 μL of 5× concentrated tested compound occurred at 17 sec and fluorescence was recorded every 1.7 sec for 90 sec to determine any innate agonist activity. This first round of 90 sec recordings provided a 20 min preincubation period. […] Maximum peak height was determined by the FlexStation software (SoftMax Pro 5.2) for each well and was normalized to vehicle control.

T1 sequence (P28223 whole entry): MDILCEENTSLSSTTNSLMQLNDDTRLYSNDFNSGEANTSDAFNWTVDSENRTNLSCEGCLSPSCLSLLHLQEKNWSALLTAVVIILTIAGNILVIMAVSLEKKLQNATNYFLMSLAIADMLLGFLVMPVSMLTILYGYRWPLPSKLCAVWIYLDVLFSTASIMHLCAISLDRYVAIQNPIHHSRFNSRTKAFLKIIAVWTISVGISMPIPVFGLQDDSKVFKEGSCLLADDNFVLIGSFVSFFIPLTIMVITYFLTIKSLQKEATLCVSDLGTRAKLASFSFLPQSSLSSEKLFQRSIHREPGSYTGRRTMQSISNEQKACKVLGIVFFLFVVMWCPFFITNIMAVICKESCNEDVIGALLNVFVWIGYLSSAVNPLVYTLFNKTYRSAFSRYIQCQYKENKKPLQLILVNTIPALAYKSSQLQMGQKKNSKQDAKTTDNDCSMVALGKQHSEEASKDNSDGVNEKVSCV

CCCCCCCCCCC[C@@H]1CCN[C@H](C(=O)N[C@@H]([C@H]2O[C@H](SC)[C@H](O)[C@@H](O)[C@H]2O)[C@H](C)Cl)C1.Cl [CYD-1-78-2]
alteration of Cai++ release in 5-HT2AR-CHO cells [1]: neither | Cai++ release induced by 0.3 nM 5-HT in presence of compound ([2]; 0.3 nM 5-HT (~EC20) alone gives 23.9%, 5-HTmax determined at 1 μM 5-HT): 48.5 % of 5-HTmax | effect on Cai++ release induced by 0.3 nM 5-HT ([2]; 0.3 nM 5-HT, 5-HT2CR-CHO cells): potentiated | concentrations that significantly enhanced Cai++ release above that of 0.3 nM 5-HT alone ([2]; 0.3 nM 5-HT, Dunnett's, p<0.05): 10^−13-10^−7 M | effect of 1 nM compound on Cai++ response at low concentrations of 5-HT ([2]; 1 nM compound, 5-HT 10^11-3×10^−10 M): enhanced | effect on Cai++ release at the highest concentration utilized ([2]; 10^−5 M compound, 0.3 nM 5-HT, p<0.05): reduced | Cai++ release in the absence of 5-HT (intrinsic agonist activity) ([2]; concentrations up to 10^−5 M, no 5-HT): n.s. and did not detect intrinsic agonist activity

Source: patent US9533973B2, “Allosteric modulators of 5-hydroxytryptamine 2C receptor (5-HT2CR)” (THE BOARD OF REGENTS OF THE UNIVERSITY OF TEXAS SYSTEM, priority 2011, dated 2017)
